Here are results for 4 substances from US20210380666A1, “SYNTHETIC HEME-CONTAINING MOLECULES AND THEIR USE” (priority 2017, published 2021).

Ends that are not written are not given here.

Assay [1] concerns 100% CO bound hemoglobin (HbCO). Briefly: CO scavenging from CO-bound hemoglobin, UV-visible spectra kinetics. Format: biochemical. The conditions noted are these: 100% HbCO mixed with reduced heme-peptide; spectral changes during reaction.
Assay [2] is described as follows: CO binding of dithionite-reduced heme molecule by absorbance spectra. The conditions noted are these: anaerobic, reduced with stoichiometric dithionite, CO saturated phosphate buffered saline added. The source says:
A heme molecule bound to two peptide chains Ac-GCHGGR (SEQ ID NO: 2) in a “sandwich” (see FIG. 1), when prepared in anaerobic conditions, changes absorbance spectra (measured by Cary Spec device) with the introduction of stoichiometric amounts of dithionite.

For the substance “microperoxidase-11 [MP11, reference compound]”, the “kobs for CO scavenging, k1” value in assay [1] was 0.0215 s⁻¹.

In the case of “RCHGGR: heme group bound to two non-contiguous peptides each of sequence RCHGGR (not fully specified (N-terminus); also: heme group bound to two non-contiguous peptide copies)”, in assay [1], the “kobs for CO scavenging, k1” value came out at 0.02576 s⁻¹ and the “kobs for CO scavenging, k2” value is 0.01241 s⁻¹.

In the case of “Ac-GCHGGR: heme molecule bound to two peptide chains Ac-GCHGGR in a sandwich configuration (also: heme molecule bound to two peptide chains in a sandwich configuration)”, in assay [2], the “CO binding ability (change of absorbance spectra)” value is on record as “indicating its CO binding ability”.

“QHGCGGCHG (N-acetyl; heme bound via two thioether bonds)”: in assay [1], the “kobs for CO scavenging, k1” value turned out to be 0.1828 s⁻¹ and the “kobs for CO scavenging, k2” value is 0.00968 s⁻¹.
